Patent EP2722048B1, “Iron bisglycinate chelate for use in treating anaemia” (Laboratori Baldacci S.p.A., priority 2012, dated 2014)
Several values for one entry are separate records, joined by “and”; a condition that tells them apart may be missing. Equal entries are not always repeated.

Assays:
[1] = tested on: patients who had to undergo surgery and who suffered from slight sideropenic anaemia; details: t=0, before treatment, individual patients, 'Average' = mean
Description: An experimental study was conducted on patients who had to undergo surgery and who suffered from slight sideropenic anaemia.
The aim of the treatment with iron salts was to restore and/or increase the haemoglobin level before surgery in such a manner as to minimise morbidity and/or mortality after surgery.
5 patients were treated with 2 effervescent tablets (prepared as in example 1) per day of iron bisglycinate chelate for 30 days, equal to 28 mg of iron ion per day and 5 patients were treated with one tablet per day of iron sulphate equal to 105 mg of iron ion.
Heavy bleeding surgery took place 10 days after the start of treatment with the iron derivative, i.e. both with the iron bisglycinate chelate and with iron sulphate and the treatment with said iron derivative continued for the 20 days following surgery.

[2] = tested on: patients before the hip arthroplasty operation; test: Test 2: treatment for 10 days after taking 350 ml blood before hip arthroplasty, haematic parameters; format: in vivo; details: administration of iron sulphate; data in the applicant's possession
[3] = compared with mineral salts, for example iron sulphate; cited from earlier work
[4] = tested on: reticulocytes of the anaemic patient; test: Test 3: cytofluorometric analysis of reticulocytes in blood samples; format: in vivo; details: for RET_IMM: immature reticulocytes: limits 0.00-0.50; for RETH: reticulocytes with high RNA content, highly immature: limits 0.0-10.0; for RETM: reticulocytes with average RNA content, immature on average: limits 0.0-40.0; for IRF: Immature Reticulocyte Function: limits 0.000-999.000; for MRV: Mean Reticulocyte Volume: limits 0-9999; for CRC: Corrected Reticulocyte Count: limits 0.75-2.30; for MFI: Mean Fluorescence Intensity: limits 5.0-30.0; for RhC/C: reticulocyte haemoglobin content: limits 28.9-33.9; for RETL: reticulocytes without RNA, poorly immature (or mature): limits 65.0-97.0
Description: In order to be able to quantify the increase in reticulocytes, cytofluorometry analyses were conducted on samples of blood taken from the patient both before the treatment with iron bisglycinate chelate (Table 3) and after 20 days of treatment (Table 4).
The cytofluorometric analysis (fluorescence flow cytometry CFM) is conducted here as an assessment of the fluorescence obtained with the step of a laser beam of a sample of cells to be examined; in any case, further conventional techniques can be used for the purpose of the present invention.

[5] = tested on: patients before the hip arthroplasty operation; test: Test 2: treatment for 10 days after taking 350 ml blood before hip arthroplasty, haematic parameters; format: in vivo; details: individual patients, 'Average' row = mean
Description: For about 10 days, before the hip arthroplasty operation, blood is usually taken from the patients (350 ml) so as to have available, if necessary, a quantity of blood that is sufficient for an autologous transfusion.
10 days after the blood is removed, the haematic parameters of the various patients are assessed, the intervention is performed and then the treatment with iron bisglycinate chelate continues for another 30 days after surgery.

[6] = different values of pH of the gastrointestinal tract; cited from earlier work
[7] = t=20, after 20 days of treatment

For `O=S(=O)([O-])[O-].[Fe+2]` [Iron sulphate, reference compound], which Iron [1] is on record?
Its Iron is 110 µg/100ml and 85 µg/100ml.

What about the Haemoglobin ([1]; bisglycinate 28 mg iron ion/day, sulphate 105 mg iron ion/day) of the same compound?
The Haemoglobin was 12.5 g/100ml and 11.6 g/100ml.

What about the “average reduction of the haemoglobin after taking 350 ml” value [2] of the same compound?
Its value is 1.5 g of Hb.

For `NCC(=O)[O-].NCC(=O)[O-].[Fe+2]` [Iron bisglycinate chelate], which bioavailability [3] is on record?
Its bioavailability is “greater bioavailabilty than mineral salts”.

What about the “increase in the percentage of immature reticulocytes (RET_IMM)” value ([4]; after 20 days of treatment versus before the treatment) of the same compound?
Its value is 75%.

And the “RET_IMM: immature reticulocytes” value ([4]; t=0, before treatment)?
The value was 0.08%.

What about the “RETH: reticulocytes with high RNA content, highly immature” value ([4]; t=0, before treatment) of the same compound?
Its value is 1.8%.

And the “RETM: reticulocytes with average RNA content, immature on average” value ([4]; t=0, before treatment)?
The value was 9.8%.

What about the “IRF: Immature Reticulocyte Function” value ([4]; t=0, before treatment) of the same compound?
The value was 0.156.

And the “MRV: Mean Reticulocyte Volume” value ([4]; t=0, before treatment)?
The value was 86 µm^3.

And the “CRC: Corrected Reticulocyte Count” value ([4]; t=0, before treatment)?
The value was 1.56%.

What about the “MFI: Mean Fluorescence Intensity” value ([4]; t=0, before treatment) of the same compound?
The value was 15.1%.

What about the “RhC/C: reticulocyte haemoglobin content” value ([4]; t=0, before treatment) of the same compound?
Its value is 28.1 pg.

And the “RETL: reticulocytes without RNA, poorly immature (or mature)” value ([4]; t=0, before treatment)?
The value was 88.6%.

And the “RET_IMM: immature reticulocytes” value [4, 7]?
The value was 0.14%.

And the “RETH: reticulocytes with high RNA content, highly immature” value [4, 7]?
The value was 15.4%.

And the “RETM: reticulocytes with average RNA content, immature on average” value [4, 7]?
Its value is 32.3%.

What about the “IRF: Immature Reticulocyte Function” value [4, 7] of the same compound?
The value was 0.534.

What about the “MRV: Mean Reticulocyte Volume” value [4, 7] of the same compound?
Its value is 100 µm^3.

What about the “CRC: Corrected Reticulocyte Count” value [4, 7] of the same compound?
Its value is 1.87%.

What about the “MFI: Mean Fluorescence Intensity” value [4, 7] of the same compound?
Its value is 29.8%.

And the “RhC/C: reticulocyte haemoglobin content” value [4, 7]?
The value was 29.4 pg.

And the “RETL: reticulocytes without RNA, poorly immature (or mature)” value [4, 7]?
The value was 52.3%.

What about the Haemoglobin ([5]; t=0, start of treatment after taking 350 ml blood) of the same compound?
Its Haemoglobin is 12.5 g/100ml and 13.2 g/100ml (2×) and 12.9 g/100ml (2×) and 13.3 g/100ml and 12.7 g/100ml.

What about the “% Reticulocytes” value ([5]; t=0) of the same compound?
Its value is 1.1% (3×) and 0.6% and 2.1% and 1.4% and 0.8%.

What about the Ferritin ([5]; t=0) of the same compound?
The Ferritin was 97 ng/mL and 132 ng/mL and 315 ng/mL and 146 ng/mL and 43 ng/mL and 53 ng/mL and 67 ng/mL.

What about the Sideraemia ([5]; t=0) of the same compound?
The Sideraemia was 76 µg/100ml and 67 µg/100ml and 58 µg/100ml and 112 µg/100ml and 75 µg/100ml and 87 µg/100ml.

What about the “% Reticulocytes” value ([5]; t=10days, 2 tablets a day) of the same compound?
The value was 1.5% and 0.9% and 16% and 23% and 1.2% and 25% and 1.7%.

And the Ferritin ([5]; t=10days, 2 tablets a day)?
Its Ferritin is 103 ng/mL and 72 ng/mL and 237 ng/mL and 95 ng/mL and 25 ng/mL and 34 ng/mL and 67 ng/mL.

And the Haemoglobin ([5]; t=10days, 2 tablets a day)?
The Haemoglobin was 11.8 g/100ml (2×) and 12.7 g/100ml and 12.2 g/100ml and 12.8 g/100ml and 12.9 g/100ml and 12.1 g/100ml.

What about the Sideraemia ([5]; t=10days, 2 tablets a day) of the same compound?
The Sideraemia was 58 µg/100ml and 120 µg/100ml and 80 µg/100ml and 62 µg/100ml and 65 µg/100ml and 84 µg/100ml and 69 µg/100ml.

And the “stability of the bond (hydrolysis)” value [6]?
Its value is “does not hydrolyse”.
